We go through 8 molecules from PubChem BioAssay (NCI).

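How tested: cells in 96-well plates exposed to compound for 48 hours at five concentrations. GI50 is the concentration that inhibits growth by half. TGI: concentration producing complete growth inhibition.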

Among the test systems are 786-0 renal; CAKI-1 renal; EKVX NSCLC; HOP-62 NSCLC; M14 melanoma; NCI-H460 lung; SF-295 CNS; SK-MEL-28 melanoma; SW-620 colon; TK-10 renal.
Holding throughout (test): inhibition of tumour cell growth, NCI panel, 48 h

On to `Cc1ccc(NC(=O)c2cccc(N(C)C)c2)cc1NC(=O)c1ccc(O)cc1`, for which the GI50 in the assay with 786-0 renal is more than 71.5 µM; in the assay on CAKI-1 renal it was 52.8 µM; in the assay with EKVX NSCLC, more than 79.7 µM; with HOP-62 NSCLC it was 54.2 µM; in the assay on M14 melanoma, more than 64.6 µM; in the assay on NCI-H460 lung, 45.2 µM. Further, the GI50 is 37.6 µM in the assay with SF-295 CNS, more than 50.1 µM with SK-MEL-28 melanoma, more than 75.5 µM with SW-620 colon and more than 70 µM with TK-10 renal. Also, the TGI in the assay with 786-0 renal, with CAKI-1 renal, with EKVX NSCLC, in the assay with HOP-62 NSCLC, in the assay on M14 melanoma and with NCI-H460 lung was more than 100 µM throughout. The TGI in the assay with SF-295 CNS, with SK-MEL-28 melanoma, with SW-620 colon and in the assay with TK-10 renal was more than 100 µM each time.

`NC(=O)c1ccc(I)c(N)c1`: the GI50 in the assay with 786-0 renal, in the assay on CAKI-1 renal, in the assay with EKVX NSCLC, in the assay on HOP-62 NSCLC, in the assay with M14 melanoma and in the assay on NCI-H460 lung was more than 100 µM throughout. For the same molecule, the GI50 in the assay on SF-295 CNS, in the assay with SK-MEL-28 melanoma, in the assay with SW-620 colon and in the assay with TK-10 renal was more than 100 µM each time. The TGI with 786-0 renal, in the assay with CAKI-1 renal, with EKVX NSCLC, with HOP-62 NSCLC, in the assay on M14 melanoma and in the assay with NCI-H460 lung was more than 100 µM each time. In addition, the TGI in the assay with SF-295 CNS, in the assay with SK-MEL-28 melanoma, with SW-620 colon and with TK-10 renal was more than 100 µM in each case.

With `C=C1C(=O)O[C@H]2[C@H]1CC/C(COC(=O)c1ccc3ccccc3c1)=C\CC[C@@]1(C)O[C@@H]21`, the GI50 in the assay with 786-0 renal is 1.18 µM; in the assay on CAKI-1 renal, 1.22 µM; with EKVX NSCLC it was 1.63 µM; in the assay on HOP-62 NSCLC it was 1.56 µM; with M14 melanoma, 1.13 µM; with NCI-H460 lung, 1.69 µM. In addition, the GI50 in the assay with SF-295 CNS is 1.54 µM; with SK-MEL-28 melanoma, 1.47 µM; in the assay with SW-620 colon it was 0.356 µM; in the assay on TK-10 renal it was 1.52 µM. In addition, the TGI is 2.65 µM with 786-0 renal; 2.46 µM in the assay with CAKI-1 renal; 3.63 µM in the assay on EKVX NSCLC; 2.97 µM in the assay with HOP-62 NSCLC; 2.68 µM with M14 melanoma; 3.75 µM in the assay with NCI-H460 lung. The TGI in the assay on SF-295 CNS was 3.06 µM; in the assay with SK-MEL-28 melanoma, 2.96 µM; in the assay on SW-620 colon, 1.39 µM; in the assay on TK-10 renal it was 2.85 µM.

Take `CSC(C1c2ccccc2N(c2ccc(C)cc2)C2=NC(=O)N(C)C(=O)C21Cl)S(=O)(=O)c1ccc(C)cc1` (stereo not given): the TGI is 38.4 µM in the assay on 786-0 renal; 43.2 µM in the assay with CAKI-1 renal; more than 100 µM with EKVX NSCLC; 43.3 µM with HOP-62 NSCLC; 72.3 µM in the assay on M14 melanoma; 64.8 µM with NCI-H460 lung. In addition, the TGI in the assay with SF-295 CNS is 62.4 µM; in the assay on SK-MEL-28 melanoma, 45.1 µM; with SW-620 colon, 85.9 µM; with TK-10 renal, more than 100 µM.

In the case of `CN1CCN(C)C12C=c1ccccc1=CC21CC1`, the TGI with 786-0 renal was more than 100 µM; in the assay on CAKI-1 renal, more than 100 µM; in the assay with EKVX NSCLC, more than 100 µM; in the assay with HOP-62 NSCLC, more than 100 µM; in the assay with M14 melanoma, 34.8 µM; in the assay with NCI-H460 lung it was more than 75.1 µM. In addition, the TGI in the assay with SF-295 CNS was more than 100 µM; with SK-MEL-28 melanoma it was 43 µM; in the assay on SW-620 colon, 48.3 µM; with TK-10 renal it was more than 100 µM.

In the case of `CCOC(=O)[C]1([Bi]([CH3])[CH3])N=NC(C(=O)OC)=C1C(=O)OC` (stereo not given), the GI50 in the assay on 786-0 renal was 18.8 µM; with CAKI-1 renal, 15.9 µM; with EKVX NSCLC, 18.7 µM; in the assay on HOP-62 NSCLC, more than 100 µM; with M14 melanoma, more than 10 µM; in the assay on NCI-H460 lung it was more than 100 µM. Also, the GI50 is more than 100 µM with SF-295 CNS, 16.2 µM in the assay with SK-MEL-28 melanoma, 16.6 µM with SW-620 colon and 17.3 µM in the assay on TK-10 renal. The TGI in the assay on 786-0 renal was 33.2 µM; in the assay on CAKI-1 renal, 29.3 µM; with EKVX NSCLC it was 36.5 µM; with HOP-62 NSCLC, more than 100 µM; in the assay with M14 melanoma it was more than 10 µM; in the assay on NCI-H460 lung it was more than 100 µM. The TGI was more than 100 µM in the assay with SF-295 CNS, 30.4 µM with SK-MEL-28 melanoma, 32.8 µM in the assay with SW-620 colon and 32.1 µM with TK-10 renal.

On to `Oc1ccc(CN2CCC(N3CCCCC3)CC2)c2cccnc12`, for which the GI50 was 19.3 µM with 786-0 renal; 33.8 µM in the assay on CAKI-1 renal; 32.4 µM in the assay with EKVX NSCLC; 6.25 µM in the assay with HOP-62 NSCLC; 5.75 µM in the assay on M14 melanoma; 4.01 µM in the assay with NCI-H460 lung. Also, the GI50 in the assay with SF-295 CNS is 68.3 µM; with SK-MEL-28 melanoma, 21.4 µM; with SW-620 colon it was 17 µM; in the assay on TK-10 renal, 78.2 µM. The TGI in the assay with 786-0 renal, in the assay with CAKI-1 renal, in the assay with EKVX NSCLC, with HOP-62 NSCLC, with M14 melanoma and with NCI-H460 lung was more than 100 µM in each case. Besides, the TGI in the assay on SF-295 CNS, in the assay on SK-MEL-28 melanoma, with SW-620 colon and with TK-10 renal was more than 100 µM in each case.

In the case of `Cc1cc2c(cc1C)[n+](=O)c(C(=O)C/C(=N/NC(=O)CC#N)C(=O)Nc1ccccc1C(F)(F)F)c(C)n2[O-]`, the TGI with 786-0 renal, in the assay on CAKI-1 renal, in the assay with EKVX NSCLC, with HOP-62 NSCLC, in the assay with M14 melanoma and with NCI-H460 lung was more than 100 µM each time. Besides, the TGI in the assay with SF-295 CNS, in the assay on SK-MEL-28 melanoma, in the assay on SW-620 colon and with TK-10 renal was more than 100 µM each time.
